Measured values taken from patent US6413947B1, “Anilide derivative, production and use thereof” (Takeda Chemical Industries, Ltd., priority 1997, dated 2002).

How the values were obtained:
HIV-1 BA-L [1] = test: Inhibitory effect on HIV-1 infection to MAGI-CCR5 cell; format: cell-based; details: 2 days
Procedure: The plasmid where β-galactosidase gene was ligated downstream of HIV-1 LTR was introduced into CD4 positive HeLa cell, to which human CCR5 was further introduced to obtain transformant MAGI-CCR5. By using said transformant MAGI-CCR5, degree of HIV-1 infection was calculated from β-galactosidase activity (blue color due to decomposition of 5-bromo-4-chloro-3-indolyl-β-D-galactopyranoside). Specifically, MAGI-CCR5 cells were suspended in DMEM medium containing 10% serum to prepare 5×10^4 cells/ml suspension. To each well of 96 well plate was inoculated 200 μl of the suspension, and the cells were cultivated at 37° C. overnight. The medium was removed by means of suction, and to the residue was added 100 μl of the above medium containing 1.6 μM of Test Compound 96 or 0.064 μM of Test Compound 248 and 100 μl of the above medium containing 300PFU of HIV-1 BA-L cells. The cells were cultivated at 37° C. for 2 days. The medium was removed by means of suction. To the residue was added 200 μl of cell fixative (PBS containing 1% formaldehyde and 0.2% glutaraldehyde), and the mixture was allowed to stand at room temperature for 5 minutes and washed twice with PBS. […] The number of blue cells was counted by microscope and defined as the number of cells infected with HIV-1.

HIV-1 BA-L [2] = test: Inhibitory effect on HIV-1 infection to human PBMC; format: cell-based; details: human PBMC stimulated with PHA and IL-2, 7 days
Procedure: From normal person human peripheral blood mononuclear cells (PBMC) were separated, and the cells were stimulated with 10 μg/ml of PHA (Phytohemaglutinin) and 20 U/ml of interleukin-2 (IL-2) for 3 days. The cells were suspended in RPMI-1640 medium containing 20% serum to prepare 1×10^6/ml suspension. To the suspension were infected HIV-1 BA-L cells (20 ng as an amount of p24 antigen), and viruses were absorbed at 37° C. for 2 hours. The cells were washed and suspended in RPMI-1640 medium containing 20% serum and IL-2 20 U/ml to prepare 1×10^5/ml suspension. To the PBMC suspension was added the same amount of a solution which contains 2.0 μM of Test Compound 96 or 0.32 μM of Test Compound 248, and the cells were cultivated at 37° C. for 7 days in carbon dioxide gas incubator. The amount of p24 antigen in supernatant of the cultivated medium was determined by enzyme-linked immunosorbent assay (ELISA) and defined as degree of HIV-1 infection.

human CCR5 = target: T1, human CCR5 (Homo sapiens, UniProt P51681); test: CCR5 antagonistic activity ([125I]-RANTES binding to CHO/CCR5 cells); details: Test Compound 1 μM, 100 pM [125I]-RANTES, room temperature 30 minutes; for inhibition at 1 µM: read-out: Inhibition Rate (%) to CCR5 binding
T1 construct: expressed in transfected cells; host or cells: CHO-K1 cells, geneticin-resistant clone CHO/CCR5
Procedure: Cloning of CCR5 gene was carried out by PCR (polymerase chain reaction) from human spleen cDNA. With using 0.5 ng of spleen cDNA (Toyobo, QUICK-Clone cDNA) as template, PCR was performed in DNA Thermal Cycler 480 (Perkin-Elmer) (reaction conditions: 30 cycles of 95° C. for 1 minute, 60° C. for 1 minute, and 75° C. for 5 minutes) by adding primer set, 5′-CAGGATCCGATG […]-3′ (25 pmol) and 5′-TCTAGATCACAAGCC CACAGATATTTCCTGCTCC-3′ (25 pmol), which were designed referring to nucleotide sequence of CCR5 gene reported by Samson et al. (Biochemistry, 35(11), 3362-3367 (1996)) and by using TaKaRa EX Taq (Takara Shuzo). The resultant PCR product was subjected to agarose gel electrophoresis to collect about 1.0 kb DNA fragment, which was subjected to Original TA Cloning Kit (Funakoshi) to carry out cloning of CCR5 gene.
The plasmid obtained in the above (1) was digested with restriction enzymes XbaI (Takara Shuzo) and BamHI (Takara Shuzo) and subjected to agarose gel electrophoresis to collect about 1.0 kb DNA fragment. The DNA fragment was mixed with plasmid pcDNA3.1 (Funakoshi) for expression in animal cells, said plasmid being digested with XbaI and BamHI, and they were ligated with DNA Ligation Kit Ver.2 (Takara Shuzo). The resulting plasmid was subjected to transformation of competent cell of E. coli JM109 (Takara Shuzo) to obtain plasmid pCKR5.
CHO-K1 cells were grown in 750 ml of tissue culture flask (Becton Dickinson) using Ham's F12 medium (Nihon Pharmaceutical) containing 10% fetal calf serum (Life Tech Oriental) and took off with 0.5 g/L trypsin-0.2 g/L EDTA (Life Tech Oriental). The cells were washed with PBS (Life Tech Oriental), centrifuged (1000 rpm, 5 minutes), and suspended in PBS. With using Gene Pulser (Bio-Rad Laboratories), DNA was introduced into the cells under the conditions shown below. That is, to the cuvette of 0.4 cm gap were added 8×10^6 cells and 10 μg of plasmid pCKR5 for expression of human CCR5, and electroporation was carried out under 0.25 kV of voltage and 960 μF of capacitance. The cells were transferred into Ham's F12 medium (Nihon Pharmaceutical) containing 10% fetal calf serum, and cultivated for 24 hours. The cells were again took off and centrifuged, and suspended in Ham's F12 medium (Nihon Pharmaceutical) containing 10% fetal calf serum and 500 μg/ml of geneticin (Life Tech Oriental). The suspension was diluted to give 1 cells/ml of the suspension, which was inoculated on 96 well plate (Becton Dickinson) to give geneticin resistant cells. The resulting geneticin resistant cells were cultivated in 96 well plate (Becton Dickinson), and cells expressing CCR5 were selected from the geneticin resistant cells. That is, in assay buffer (Ham's F12 medium containing 0.5% BSA and 20 mM HEPES (Wako Pure Chemical, pH7.2) to which was added 200 pM of [^125I]-RANTES (Amersham) as ligand, binding reaction was carried out at room temperature for 40 minutes, and the buffer was washed with cooled PBS. To the buffer was added 50 μl/well of 1M NaOH, and the mixture was stirred. Radioactivity was determined with γ-counter to select CHO/CCR5 cells which specifically bind to the ligand.
The CHO/CCR5 were inoculated on 96 well microplate (5×10^4 cells/well) and cultivated for 24 hours. […] Radio-activity was determined with Top-Count Micro Scintillation Counter (Packard Instrument, Inc.). […]

T1 sequence (P51681 whole entry): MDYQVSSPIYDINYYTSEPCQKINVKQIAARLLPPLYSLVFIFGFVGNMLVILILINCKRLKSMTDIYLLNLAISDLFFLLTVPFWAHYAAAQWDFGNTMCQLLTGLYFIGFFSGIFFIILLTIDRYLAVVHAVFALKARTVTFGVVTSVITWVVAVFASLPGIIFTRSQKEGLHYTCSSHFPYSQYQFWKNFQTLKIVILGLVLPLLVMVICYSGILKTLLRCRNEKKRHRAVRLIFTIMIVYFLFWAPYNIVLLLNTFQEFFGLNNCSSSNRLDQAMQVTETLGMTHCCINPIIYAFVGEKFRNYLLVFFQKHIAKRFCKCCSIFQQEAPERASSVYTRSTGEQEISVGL

Molecule	Inhibition Rate (%) to CCR5 binding (human CCR5)	inhibition at 1 µM (human CCR5)	also measured
Cc1ccc(-c2ccc3c(c2)C=C(C(=O)Nc2ccc(C[N+]4(C)CCCCC4)cc2)CCO3)cc1 [Compound 96, 1—(N-(7—(4-methylphenyl)-2,3-dihydro-1-benzoxepin-4-carbonyl)-4-aminobenzyl)-1-methylpiperidinium iodide]	–	–	inhibition on HIV-1 infection (number of blue cells) (HIV-1 BA-L [1]; 100 μl medium containing 1.6 μM of Test Compound plus 100 μl medium with 300PFU HIV-1 BA-L): 92%; inhibition on HIV-1 infection (p24 antigen in supernatant, ELISA) (HIV-1 BA-L [2]; same amount of a solution containing 2.0 μM of Test Compound added): 96%
CC(C)(C)c1ccc(-c2ccc3c(c2)C=C(C(=O)Nc2ccc(CP4(=O)CCCCC4)cc2)CCO3)cc1 [Compound 180, N-(4—(pentamethylene)phosphorylmethylphenyl)-7—(4-tert-butylphenyl)-2,3-dihydro-1-benzoxepine-4-carboxamide]	99%	–	–
Cc1ccc(-c2ccc(/C=C/C(=O)Nc3ccc(CP4(=O)CCCCC4)cc3)s2)cc1 [Compound 209, (E)-N-(4-pentamethylenephosphorylmethylphenyl)-3-[5—(4-methylphenyl)thiophen-2-yl]acrylic amide]	80%	–	–
Cc1ccc(-c2ccc3c(c2)C=C(C(=O)Nc2ccc(C[N+](C)(C)C4CCOCC4)cc2)CCC3)cc1 [Compound 248, N,N-dimethyl-N-(4-(((2-(4-methylphenyl)-6,7-dihydro-5H-benzocyclohepten-8-yl)carbonyl)amino)benzyl)-N-(4-tetrahydropyranyl)ammonium chloride]	–	99%	inhibition on HIV-1 infection (number of blue cells) (HIV-1 BA-L [1]; 100 μl medium containing 0.064 μM of Test Compound plus 100 μl medium with 300PFU HIV-1 BA-L): 100%; inhibition on HIV-1 infection (p24 antigen in supernatant, ELISA) (HIV-1 BA-L [2]; same amount of a solution containing 0.32 μM of Test Compound added): 74%
CCOc1ccc(-c2ccc3c(c2)C=C(C(=O)Nc2ccc(C[N+](C)(C)C4CCOCC4)cc2)CCO3)cc1 [Compound 250, N-(4-(((7-(4-ethoxyphenyl)-2,3-dihydro-1-benzoxepin-4-yl)carbonyl)amino)benzyl)-N,N-dimethyl-N-(4-tetrahydropyranyl)ammonium chloride]	–	96%	–
N-((7—(4-methylphenyl)-2,3-dihydro-1-benzoxepin-4-carbonyl)-2—(4-aminophenyl)ethyl)-N-methylpiperidinium iodide [Compound 100]	100%	–	–
